Measured values published in ChEMBL document CHEMBL1126378, “Substrate selectivity of imidazole-appended dimethyl--cyclodextrin” (Bioorg Med Chem Lett, 1992).

Tests used:
[1] = Ratio of kcat and kun was determined
[2] = Ratio of kcat and Km was determined
[3] = Kinetic parameter Km for hydrolysis at 25 degrees Celsius using phosphate buffer in reaction with 3-[2-(4-imidazolyl)ethyl] […]
[4] = Kinetic parameter kcat for hydrolysis at 25 degrees Celsius using phosphate buffer in reaction with 3-[2-(4-imidazolyl)ethyl] […]
[5] = Kinetic parameter Kun for hydrolysis at 25 degrees Celsius using phosphate buffer in reaction with 3-[2-(4-imidazolyl)ethyl] […]

SMILES	k cat/Kuncat [1]	k cat/Km [2] [M⁻¹ s⁻¹]	Km [3] [µM]	k cat [4] [s⁻¹]	Kun [5] [s⁻¹]
CC(=O)N[C@H](Cc1ccccc1)C(=O)Oc1ccc([N+](=O)[O-])cc1	28	49.7	478	0.0238	0.000861
CC(=O)NCC(=O)Oc1ccc([N+](=O)[O-])cc1	92	35.4	1470	0.0519	0.000562
CC(=O)NC(C)C(=O)Oc1ccc([N+](=O)[O-])cc1 (stereo not given)	26	27.5	1350	0.0371	0.00144
CC(=O)N[C@@H](Cc1ccccc1)C(=O)Oc1ccc([N+](=O)[O-])cc1	13	73.9	148	0.011	0.000861
CC(C)(C)OC(=O)NCC(=O)Oc1ccc([N+](=O)[O-])cc1	242	80.5	387	0.0312	0.000129
